Read-outs that look alike come from different tables or passages of the source.
How the values were obtained:
[1] = tested on: ExoU translocation from P. aeruginosa strain PAKΔSTYexoU into CHO cells; assay: Inhibition of P. aeruginosa ExoU-dependent CHO cell killing (LDH release); conditions: ExoU-secreting P. aeruginosa, MOI 5
[2] = tested on: T3SS-mediated secretion of ExoS′-βLA fusion protein from P. aeruginosa strain MDM973; assay: microbe, parasite or virus in culture; type: cell-based, Pseudomonas aeruginosa
[3] = tested on: T3SS-mediated secretion of YopE-βLA fusion protein from Y. pestis strain JG153/pMM85; assay: microbe, parasite or virus in culture; type: cell-based; conditions: Yersinia pestis, read-out: yopE-βLA IC50
HeLa cells = conditions: ratio of HeLa CC50 vs ExoS′-βLA IC50
in vitro = conditions: human
[4] = tested on: P. aeruginosa T3SS (exoT-luxCDABE reporter strain MDM852); type: cell-based, Pseudomonas aeruginosa; conditions: both at 50 μM compound; for Serum Effect: % inhibition of exoT-lux RLU in the absence of serum/% inhibition in the presence of 10% fetal calf serum; for RLU Selectivity / RLU-S (RLU Selectivity): % inhibition of exoT-lux RLU/% inhibition of lac-lux RLU; for RLU-S (RLU Selectivity): Table 5
P. aeruginosa = assay: Minimum inhibitory concentration (broth microdilution); conditions: Pseudomonas aeruginosa, read-out: MIC vs. P. aeruginosa
[5] = Pseudomonas aeruginosa, read-out: IC50 (μM) (ExoS′-βLA assay), Table 4
[6] = Pseudomonas aeruginosa, read-out: ExoS′-βLA IC50, Table 3, secretion from P. aeruginosa strain MDM973 reduced by 50%
[7] = Pseudomonas aeruginosa, read-out: IC50 in the ExoS′-βLA secretion assay
[8] = CC50 (cytotoxicity, HeLa), absence of serum
[9] = Pseudomonas aeruginosa, read-out: ExoS′-βLA IC50, Table 5, P. aeruginosa strain MDM973
[10] = Table 4, read-out: IC50 (μM) (ExoS′-βLA assay)

CC(Oc1ccc(Cl)cc1Cl)C(=O)NCc1ccco1 (racemic) [compound 5685325, 2-(2,4-dichlorophenoxy)-N-(2-furylmethyl)propanamide]
rescue of CHO cells from ExoU cytotoxicity (in words) [1]: rescued CHO cells | IC50 [2, 5]: 25 µM

Cc1ccc(CNC(=O)C(C)Oc2ccc(Cl)cc2Cl)cc1 (racemic) [compound 6109233, 2-(2,4-dichlorophenoxy)-N-(4-methylbenzyl)propanamide]
IC50 [2, 5]: 5 µM

Cc1cc(Cl)ccc1OC(C)C(=O)NCc1ccc2c(c1)OCO2 (racemic) [compound 6116488, N-(1,3-benzodioxol-5-ylmethyl)-2-(4-chloro-2-methylphenoxy)propanamide]
IC50 [2, 5]: 98 µM

CC(Oc1ccc(Cl)cc1Cl)C(=O)NCc1ccncc1 (racemic) [compound 6372013, 2-(2,4-dichlorophenoxy)-N-(4-pyridinylmethyl)propanamide]
IC50 [2, 5]: 59 µM

COc1ccccc1CNC(=O)C(C)Oc1ccc(Cl)cc1Cl (racemic) [compound 6374948, 2-(2,4-dichlorophenoxy)-N-(2-methoxybenzyl)propanamide]
IC50 [2, 5]: 12 µM

COc1ccc(CNC(=O)C(C)Oc2ccc(Cl)cc2Cl)cc1 (racemic) [compound 6375680, 2-(2,4-dichlorophenoxy)-N-(4-methoxybenzyl)propanamide]
IC50 [2, 5]: 10 µM

CC(Oc1ccc(Cl)cc1Cl)C(=O)NCc1ccc(F)cc1 (racemic) [compound 6380194, 2-(2,4-dichlorophenoxy)-N-(4-fluorobenzyl)propanamide]
rescue of CHO cells from ExoU cytotoxicity (in words) [1]: rescued CHO cells | IC50 [2, 5]: 9 µM

CC(Oc1ccc(Cl)cc1Cl)C(=O)NCCC1=CCCCC1 (racemic) [compound 6467504, N-[2-(1-cyclohexen-1-yl)ethyl]-2-(2,4-dichlorophenoxy)propanamide]
IC50 [2, 5]: > 100 µM

CC(Oc1ccc(Cl)cc1Cl)C(=O)N(C)Cc1ccccc1 (racemic) [compound 6468028, N-benzyl-2-(2,4-dichlorophenoxy)-N-methylpropanamide]
IC50 [2, 5]: 21 µM

CC(Oc1ccc(Cl)cc1Cl)C(=O)NCc1ccc(Cl)c(Cl)c1 (racemic) [compound 7271715, N-(3,4-dichlorobenzyl)-2-(2,4-dichlorophenoxy)propanamide]
IC50 [2, 5]: > 100 µM

Cc1nn(C)cc1CNC(=O)C(C)Oc1ccc(Cl)cc1Cl (racemic) [compound 8804126, 2-(2,4-dichlorophenoxy)-N-[(1,3-dimethyl-1H-pyrazol-4-yl)methyl]propanamide]
IC50 [2, 5]: 61 µM

CC(Oc1ccccc1Cl)C(=O)NCc1ccc2c(c1)OCO2 (racemic) [compound 9153915, N-(1,3-benzodioxol-5-ylmethyl)-2-(2-chlorophenoxy)propanamide]
IC50 [2, 5]: 23 µM

O=C(CC1Sc2ncnn2C1=O)Nc1ccccc1 (stereo not drawn) [Compound 2, 2-(6-oxo-5,6-dihydrothiazolo[3,2-b][1,2,4]triazol-5-yl)-N-phenylacetamide]
IC50 [3]: 6.1 µM | CC50/IC50 (HeLa cells): 3.1 | IC50 [2, 6]: 12 µM | CC50 (in vitro; HeLa CC50): 37 µM | Serum Effect [4]: 2 | RLU Selectivity [4]: 2.6

CCN1CCOC(CC(=O)Nc2ccc3c(c2)OCCO3)C1=O (stereo not drawn) [Compound 3, N-(2,3-dihydrobenzo[b][1,4]dioxin-6-yl)-2-(4-ethyl-3-oxomorpholin-2-yl)acetamide]
rescue of CHO cells from ExoU cytotoxicity (in words) [1]: failed to inhibit T3SS-mediated translocation | IC50 [3]: 16 µM | CC50/IC50 (HeLa cells): >5.0 | MIC (P. aeruginosa): > 100 µM | IC50 [2, 6]: 20 µM | IC50 [2, 7]: ≤ 25 µM | CC50 (in vitro; [8]): ≥ 100 µM | CC50 (in vitro; HeLa CC50): > 100 µM | Serum Effect [4]: 4.8 | RLU Selectivity [4]: 4.1

CCN1CCOC(CC(=O)Nc2ccc(F)cc2)C1=O (stereo not drawn) [Compound 4, 2-(4-ethyl-3-oxomorpholin-2-yl)-N-(4-fluorophenyl)acetamide]
rescue of CHO cells from ExoU cytotoxicity (in words) [1]: failed to inhibit T3SS-mediated translocation | IC50 [3]: 6 µM | CC50/IC50 (HeLa cells): 6.2 | MIC (P. aeruginosa): > 100 µM | IC50 [2, 6]: 13 µM | IC50 [2, 7]: ≤ 25 µM | CC50 (in vitro; [8]): ≥ 100 µM | CC50 (in vitro; HeLa CC50): 100 µM | Serum Effect [4]: 4.2 | RLU Selectivity [4]: 3.9

Cc1ccc(NC(=O)/C=C/C(=O)OCC(F)(F)C(F)F)cc1 [Compound 5, (E)-2,2,3,3-tetrafluoropropyl 4-oxo-4-(p-tolylamino)but-2-enoate]
CC50/IC50 (HeLa cells): 1.3 | IC50 [2, 6]: 22 µM | CC50 (in vitro; HeLa CC50): 28 µM | Serum Effect [4]: 2.6 | RLU Selectivity [4]: 4.5

NC(=O)/C=C/C(=O)Nc1ccccc1 [Compound 6, N1-phenylfumaramide]
CC50/IC50 (HeLa cells): 1.8 | IC50 [2, 6]: 19 µM | CC50 (in vitro; HeLa CC50): 35 µM | Serum Effect [4]: 1.5 | RLU Selectivity [4]: 3.6

NC(=O)/C=C/C(=O)Nc1ccccc1Cl [Compound 7, N1-(2-chlorophenyl)fumaramide]
CC50/IC50 (HeLa cells): 2.4 | IC50 [2, 6]: 17 µM | CC50 (in vitro; HeLa CC50): 40 µM | Serum Effect [4]: 1.5 | RLU Selectivity [4]: 4.7

Cc1ccc(N2C(=O)C3C(C2=O)C2(C)C=CC3(C)O2)c(C)c1 (stereo not drawn) [Compound 8, 2-(2,4-dimethylphenyl)-4,7-dimethyl-3a,4,7,7a-tetrahydro-1H-4,7-epoxyisoindole-1,3(2H)-dione]
rescue of CHO cells from ExoU cytotoxicity (in words) [1]: failed to inhibit T3SS-mediated translocation | IC50 [3]: 103 µM | CC50/IC50 (HeLa cells): >6.7 | MIC (P. aeruginosa): > 100 µM | IC50 [2, 6]: 15 µM | IC50 [2, 7]: ≤ 25 µM | CC50 (in vitro; [8]): ≥ 100 µM | CC50 (in vitro; HeLa CC50): > 100 µM | Serum Effect [4]: 3.1 | RLU Selectivity [4]: 9.2

CCc1ccc2nc(N3C(=O)C(O)=C(C(=O)c4cccs4)C3c3ccc([N+](=O)[O-])cc3)sc2c1 (stereo not drawn) [Compound 10, 1-(6-ethylbenzo[d]thiazol-2-yl)-3-hydroxy-5-(4-nitrophenyl)-4-(thiophene-2-carbonyl)-1H-pyrrol-2(5H)-one]
IC50 [3]: 4.1 µM | CC50/IC50 (HeLa cells): 5.3 | IC50 [2, 6]: 3 µM | CC50 (in vitro; HeLa CC50): 16 µM | Serum Effect [4]: 1.8 | RLU Selectivity [4]: 3.8

CN1CCN(C(=S)c2ccc(N(C)C)cc2)CC1 [Compound 11, (4-(dimethylamino)phenyl)(4-methylpiperazin-1-yl)methanethione]
IC50 [3]: 19 µM | CC50/IC50 (HeLa cells): 0.9 | IC50 [2, 6]: 19 µM | CC50 (in vitro; HeLa CC50): 18 µM | Serum Effect [4]: 1 | RLU Selectivity [4]: 22

Cc1nnc(-c2ccc(OCC(=O)N3CCc4ccccc43)cc2)o1 [F5054-0019, 1-(indolin-1-yl)-2-(4-(5-methyl-1,3,4-oxadiazol-2-yl)phenoxy)ethanone]
IC50 [2, 9]: 22.3 µM | RLU-S (RLU Selectivity) [4]: 10.8

O=C(COc1ccc(Cl)cc1Cl)NCc1ccc2c(c1)OCO2 [MBX 1668, N-[3,4-(methylenedioxy)benzyl]-2-(2,4-dichlorophenoxy)acetamide]
IC50 [2, 10]: > 100 µM

C[C@@H](Oc1ccc(Cl)cc1Cl)C(=O)NCc1ccc2c(c1)OCO2 [MBX 1684, (R)-N-(benzo[d][1,3]dioxol-5-ylmethyl)-2-(2,4-dichlorophenoxy)propanamide]
T3SS inhibitory activity (active/inactive) ([2]; ExoS′-βLA reporter assay): active | IC50 [2, 5]: 6 µM | IC50 [2, 7]: ~6 µM

CC(C)(Oc1ccc(Cl)cc1Cl)C(=O)NCc1ccc2c(c1)OCO2 [MBX 1685, N-[3,4-(methylenedioxy)benzyl]-2-(2,4-dichlorophenoxy)-2-methylpropanamide]
IC50 [2, 10]: > 100 µM

C[C@H](Oc1ccc(Cl)cc1Cl)C(=O)NCc1ccc2c(c1)OCO2 [MBX 1686, N-[3,4-(methylenedioxy)benzyl]-(S)-2-(2,4-dichlorophenoxy)propanamide]
T3SS inhibitory activity (active/inactive) [2]: inactive | IC50 [2, 10]: > 100 µM | IC50 ([2]; read-out: IC50 in the ExoS′-βLA secretion assay): > 100 µM

Oc1ccc(O)c(Cc2nc3ccccc3[nH]2)c1 [compound 6430631, 2-((1H-benzo[d]imidazol-2-yl)methyl)benzene-1,4-diol]
IC50 [2, 9]: 22.3 µM | RLU-S (RLU Selectivity) [4]: 4.2

CC(Oc1ccc(Cl)cc1Cl)C(=O)NC(C)C1CC2CCC1C2 (stereo not drawn) [compound 7247834, N-(1-(bicyclo[2.2.1]heptan-2-yl)ethyl)-2-(2,4-dichlorophenoxy)propanamide]
IC50 [2, 9]: 16.7 µM | RLU-S (RLU Selectivity) [4]: 5.6

CC(Oc1ccccc1F)C(=O)NCc1ccc2c(c1)OCO2 (stereo not drawn) [compound 7339628]
IC50 [2, 10]: > 100 µM

pseudolipasin [reference compound]
rescue of CHO cells from ExoU cytotoxicity (in words) [1]: rescued CHO cells from ExoU toxicity with a similar potency
